# Reference: patent US10201585B2, “Methods for treatment of atherosclerosis” (Stealth Peptides International, Inc., priority 2012, dated 2019)
# Values joined by “and” are separate entries in the source; they are usually repeats but may differ in a detail not shown here. Equal entries are not always repeated.
# Test system: Apoprotein E deficient mice
# Assay: Plasma lipid analysis using an autoanalyzer (TC, Trigs, PL, FC, CE by calculation)
# Format: in vivo
# Set-up: Plasma Trigs (triglycerides) / Trigs (plasma triglycerides): unit not given beside the values; Plasma CE (cholesterol ester, by calculation) / Plasma PL (phospholipids): unit not given here
# From the text: Apoprotein E deficient mice (Jackson Laboratories, 600 Main Street, Bar Harbor, Me.) were used in this study. The mice were male, 7-8 weeks of age, and between 18-20 g in weight. An initial total cholesterol measurement was made on 30 mice, and the mice were grouped into two groups of 15 to match the total cholesterol measurements. Both groups were fed a “western diet” (40 kcal % butterfat, 0.15% [wt/wt] cholesterol, Harlan Teklad diet TD-88137). Starting at t=0, the control group of 15 mice received vehicle only (phosphate buffered saline at pH 7.4), while the test group of 15 mice received aromatic-cationic peptide reconstituted in phosphate buffered saline. Body weights of the mice were recorded weekly, and mortality checks were performed daily.
# The aromatic-cationic peptide D-Arg-2′6′-Dmt-Lys-Phe-NH2 (sterile lyophilized powder, reconstituted in phosphate buffered saline) was tested. For the 12-week study, test mice received a single, daily dose of the peptide, subcutaneously at 1 mg/kg. Control mice received a single daily dose of vehicle.
# Blood was collected every four weeks (orbital plexis) under isoflurane anesthesia (3%) and blood lipids were determined. Plasma lipid analysis was conducted for both groups at t=0, 4, 6, 8, and 12 weeks. Plasma lipid analysis using an autoanalyzer included total cholesterol (TC), triglycerides (Trigs), phospholipids (PL), free cholesterol (FC), and cholesterol ester (CE, by calculation). Gel electrophoresis was used to measure levels of high-density lipoprotein cholesterol (HDL-C), low-density lipoprotein cholesterol (LDL-C), and very low-density lipoprotein cholesterol (VLDL-C).
# [1] = Week 0 (start of treatment, baseline), individual mouse of peptide group (sample 16-30)
# [2] = Week 4, individual test mice (sample # 16-30), listed as aromatic-cationic peptide
# [3] = Week 8, individual test mice (sample # 16-30), listed as aromatic-cationic peptide
# [4] = Week 12, AVE of test mice 16-30
# [5] = Week 12, individual test mice (sample # 16-30), listed as aromatic-cationic peptide
# [6] = treated versus vehicle at 4, 8 and 12 week time points
substance,measurement,setting,value
D-Arg-2′6′-Dmt-Lys-Phe-NH2,"Plasma FC (free cholesterol), AVE","Week 0 (baseline), group mean of 15 test mice, vehicle group 136",142
same,"Plasma Trigs (triglycerides), AVE","Week 0 (baseline), group mean of 15 test mice, vehicle group 141",140
same,"Plasma CE (cholesterol ester, by calculation), AVE","Week 0 (baseline), group mean of 15 test mice, vehicle group 275",280
same,"Plasma PL (phospholipids), AVE","Week 0 (baseline), group mean of 15 test mice, vehicle group 297",309
same,"Plasma TC (total cholesterol), AVE","Week 0 (baseline), group mean of 15 test mice, vehicle group 411",422
same,"Plasma CE (cholesterol ester, by calculation)",[1],183 and 197 and 242 and 192 and 207 and 204 and 240 and 366 and 196 and 270 and 297 and 382 and 306 and 331 and 588
same,Plasma FC (free cholesterol),[1],119 and 121 and 134 (2×) and 110 and 116 and 131 and 129 and 184 and 113 and 139 and 170 and 151 and 159 and 220
same,Plasma PL (phospholipids),[1],267 (3×) and 308 and 255 and 306 and 298 and 369 and 238 and 320 and 313 and 332 and 343 and 338 and 413
same,Plasma TC (total cholesterol),[1],302 (2×) and 318 and 376 and 323 and 335 and 369 and 550 and 309 and 409 and 431 and 552 and 457 and 490 and 808
same,Plasma Trigs (triglycerides),[1],75 and 88 (3×) and 117 and 96 and 71 and 138 and 167 and 136 and 151 and 191 and 188 and 154 and 353
same,CE (plasma cholesterol ester),"Week 4, AVE of test mice 16-30",610
same,FC (plasma free cholesterol),"Week 4, AVE of test mice 16-30",387
same,PL (plasma phospholipid),"Week 4, AVE of test mice 16-30",514
same,TC (plasma total cholesterol),"Week 4, AVE of test mice 16-30",997
same,Trigs (plasma triglycerides),"Week 4, AVE of test mice 16-30",58
same,CE (plasma cholesterol ester),[2],491 and 580 and 622 and 731 and 626 and 417 and 574 and 660 and 515 and 536 and 630 and 761 and 581 and 732 and 701
same,FC (plasma free cholesterol),[2],308 and 344 and 354 (2×) and 408 and 412 and 256 and 366 and 386 and 320 and 286 and 396 and 462 and 516 and 636
same,PL (plasma phospholipid),[2],422 and 482 and 452 and 560 and 526 and 320 and 506 and 556 and 446 and 416 and 516 and 580 and 510 and 666 and 750
same,TC (plasma total cholesterol),[2],799 and 924 and 976 and 1139 and 1038 and 673 and 940 and 1046 and 835 and 822 and 1026 and 1223 and 935 and 1248 and 1337
same,Trigs (plasma triglycerides),[2],18 (2×) and 39 and 28 and 85 and 59 (2×) and 46 and 108 and 33 and 44 (2×) and 67 and 80 and 144
same,CE (plasma cholesterol ester),"Week 8, AVE of test mice 16-30",932
same,FC (plasma free cholesterol),"Week 8, AVE of test mice 16-30",350
same,PL (plasma phospholipid),"Week 8, AVE of test mice 16-30",493
same,TC (plasma total cholesterol),"Week 8, AVE of test mice 16-30",1282
same,Trigs (plasma triglycerides),"Week 8, AVE of test mice 16-30",57
same,CE (plasma cholesterol ester),[3],940 and 710 and 1119 and 865 and 1153 and 653 and 714 and 1085 and 715 and 670 and 1073 and 1048 and 839 and 1130 and 1267
same,FC (plasma free cholesterol),[3],322 and 294 (2×) and 386 and 318 and 392 and 290 and 388 and 308 (2×) and 286 and 362 and 366 and 404 and 530
same,PL (plasma phospholipid),[3],416 and 456 and 474 and 448 and 516 (2×) and 424 and 480 and 488 and 436 and 440 and 556 and 470 and 540 and 728
same,TC (plasma total cholesterol),[3],1262 and 1004 and 1505 and 1183 and 1545 and 943 and 1008 and 1473 and 1023 and 956 and 1435 and 1414 and 1147 and 1534 and 1797
same,Trigs (plasma triglycerides),[3],34 (3×) and 31 (2×) and 51 (2×) and 48 and 53 and 43 and 75 and 63 and 39 and 67 and 195
same,CE (plasma cholesterol ester),[4],681
same,FC (plasma free cholesterol),[4],322
same,PL (plasma phospholipid),[4],434
same,TC (plasma total cholesterol),[4],1003
same,Trigs (plasma triglycerides),[4],55
same,CE (plasma cholesterol ester),[5],607 and 335 and 597 and 640 and 1002 and 477 and 445 and 476 and 675 and 687 and 960 and 869 and 339 and 904 and 1201
same,FC (plasma free cholesterol),[5],291 and 205 and 287 and 296 and 418 and 242 and 229 and 269 and 315 and 312 and 419 and 386 and 219 and 413 and 535
same,PL (plasma phospholipid),[5],366 and 318 and 320 and 432 and 491 and 321 and 363 and 394 and 374 and 423 and 536 and 521 and 340 and 575 and 741
same,TC (plasma total cholesterol),[5],898 and 540 and 884 and 937 and 1420 and 719 and 674 and 745 and 990 and 999 and 1379 and 1255 and 558 and 1317 and 1736
same,Trigs (plasma triglycerides),[5],27 and 49 and 10 and 37 (2×) and 18 and 39 (2×) and 13 and 25 and 74 and 89 and 97 and 112 and 158
same,"Plasma cholesterol ester, in words",[6],reduces
same,"Plasma free cholesterol, in words",[6],reduces
same,"Plasma phospholipid levels, in words",[6],reduces
same,"Plasma total cholesterol, in words",[6],reduces
same,"Plasma triglycerides, in words",[6],reduces
